The conditions of series [1]: rat; cited from earlier work.
The conditions of series [2]: in vivo; cited from earlier work.
For the next series, the system named is VM-M3 cells. Type of series: cell-based, mouse. The settings on record: 5 mM βHB, 24, 48, 72 and 96 hrs. As for the experimental part:
Cell proliferation rate was measured using the MTT Cell Proliferation Assay (ATCC). Cells were plated onto a 96 well plate and grown to desired density. […] In proliferating cells, MTT is reduced to purple formazan which absorbs light at 490-520 nm and whose excitation can be measured using standard fluorescent microscopy and spectrophotometry. Rapidly dividing cells reduce MTT at very high rates, indicating their rate of proliferation. Cell proliferation can also be measured with Ki67 immunohistochemistry staining, cell viability can also be evaluated with the LDH Cytotoxicity Assay (Cayman Chemical).
Cell viability was measured using the LIVE/DEAD Viability/Cytotoxicity Kit for Mammalian Cells (Invitrogen). Cells were grown to desired density on a coverslip and washed with Dulbecco's phosphate-buffered saline (D-PBS). […] The two-color fluorescence assay contains two probes which specifically label live or dead cells. […] Calcein produces an intense green fluorescence with an excitation/emission of 495/515 nm. Ethidium homodimer-1 (Ethd-1) enters cells with damaged membranes and binds to nucleic acid. Ethd-1 bound to DNA produces a red fluorescence in dead cells with an excitation/emission of 495/635 nm. Live and dead cells were identified and quantified using standard fluorescent microscopy. […]

Series [3] relates to primary cultured cortex neurons. Kind of series: Superoxide anion production (DHE fluorescence) in neurons treated with HBO or amyloid beta. In kind it is cell-based, rat. The settings on record: 60 min, 5 ATA O2; 2 mM ketones. As for the experimental part:
Effect of ketones on superoxide production in neurons treated with Aβ1-42 and HBO and cell viability of U87MG cells was examined Primary dissociated neuronal cultures of the hippocampus and cortex were acquired from Brain Bits LLC, to increase time efficiency and to minimize cost associated with purchasing rats. Hippocampal or cortical tissue from Brain Bits (shipped in Hibernate®) were enzymatically and mechanically dissociated via pipette trituration. Neurons were plated on 12 mm glass coverslips and allowed to adhere for 1-2 hrs in an incubator maintained at 9-20% O2 in a humidified atmosphere. Cultures were maintained in media purchased from Brain Bits, including NbActiv1® and NbActive4. […]
Presence of intracellular ROS is measured by detection of superoxide anion using Dihydroethidium (DHE). […] Cells were washed in PBS and then visualized using fluorescent microscopy or quantified using spectrophotometry. […]
Acquisition and statistical analyses of fluorescence imaging was performed as previously reported (D'Agostino, 2007; Filosa, 2002; Ritucci, 1996; Ritucci, 1997; Ritucci, 1998; Crowe, 1995; Weinlich, 1998; Inglefield, 1998; Inglefield, 1999). Average fluorescence intensity (FI) for each cell is calculated as the percent change in fluorescence from baseline, […], where FIb is the basal fluorescence defined by the two images preceding the experimental recordings. […]

A value given as a limit tells only on which side of the number the result lay.

What is called LD50 is the dose expected to kill half of the subjects tested.

For the compound `CC(C)=O` [Acetone], the LD50 in series [1] was more than 5000 mg/kg.

Regarding MCT oil, the “levels of ketones produced by supplementation” value in series [2] is less than 500 µM. In the case of `CC(O)CC(=O)O` (stereo not drawn) [βHB, β-hydroxybutyrate], in the series on VM-M3 cells, the “proliferation” value was “significantly decreased”.

With `Cc1ccccc1NC(=N)Nc1ccccc1C` [DTG, 1,3,-di-o-tolylguanidine], the “effect on superoxide anion production under hyperoxia” value in series [3] was “prevented the hyperoxia-induced increase in superoxide production”.

(Values after patent US20140072654A1, “CANCER WITH METABOLIC THERAPY AND HYPERBARIC OXYGEN” (priority 2011, published 2014).)
